Laboratory results from patent US10117873B2, “6-amino-purin-8-one compounds” (GlaxoSmithKline LLC, priority 2008, dated 2018).

What was measured:
IFN-α = experiment: Induction of Interferon-α using fresh human PBMCs; assay type: cell-based; conditions: PBMC, 24 hr incubation, relative to 2 μM resiquimod control, read-out: mean pEC50 for induction of IFN-α (converted)
Procedure: (§1) Assay for the Induction of Interferon-α and TNF-α Using Fresh Human Peripheral Blood Mononuclear Cells (PBMCs)
(§2) Compounds were dissolved and serially diluted in DMSO to give 100× the required concentration range using a Biomek® 2000. 1 ul of test compound was transferred into 96-well tissue culture plates using a Biomek® FX. Each compound was assayed in duplicate for each donor. Each plate contained a dilution series of the TLR7/8 agonist resiquimod as standard and Column 11 contained 1 μl of 200 μM resiquimod (giving a 2 μM final concentration, used to define the approximate maximal response to resiquimod).
(§3) Blood samples from two human donors were collected into sodium heparin (10 U/ml). 25 ml volumes of whole blood were overlaid onto 15 mls Histopaque® in LEUCOSEP™ tubes which were centrifuged at 800 g for 20 min and the band at the plasma/histopaque interface carefully removed. The collected cells were centrifuged at 2500 rpm for 10 min and the pellet resuspended in 10 ml of media (RPMI 1640 (Low endotoxin) supplemented with 10% v/v foetal calf serum (FCS, low endotoxin) 100 U/ml penicillin G, 100 μg/ml streptomycin, 10 mM L-glutamine and 1× non-essential amino acids). A 1:20 dilution of the cells was prepared using trypan blue & the cells counted using a haemocytometer. The PBMCs were diluted to give a final concentration of 2×10^6/ml and 100 ul of this cells suspension was added to wells containing 1 μl of diluted test compound.
(§4) The cell preparations were incubated for 24 hr (37° C., 95% air, 5% CO2) after which a sample of the supernatant was removed using the Biomek® FX and assayed for both IFN-α and TNF-α using the MSD® (Mesoscale Discovery) electrochemiluminescence assay platform. The IFN-α assay was carried out similarly to that described above. The TNF-α assay was carried out as per kit instructions (Cat No K111BHB).
(§5) Cytokine released was expressed as a percentage of the 2 μM resiquimod control (column 11). This percentage was plotted against compound concentration and the pEC50 for the response determined by non-linear least squares curve fitting. For the IFN-α responses generally a 4 parameter logistic model was selected. For the TNF responses where a clear maximum response was obtained (i.e. a well defined plateau in the response was observed) then a 4 parameter model was generally used. If the upper asymptote of the curve wasn't well defined then the curve fitting was generally constrained to a maximal response of 100% (i.e. to the response to 2 μM resiquimod) or to the response of the highest concentration tested if this was greater than the resiquimod response. Some curves were bell shaped for one or both cytokines and the cytokine data on the down slope of the bell shaped response (i.e. concentrations above those giving the maximal response) were generally excluded from the fit, usually with the exception of the concentration immediately above the peak response. Curve fitting thus concentrated on the up slope of the dose response curve.

TNF-α = experiment: Induction of TNF-α using fresh human PBMCs; assay type: cell-based; conditions: PBMC, 24 hr incubation, relative to 2 μM resiquimod control, read-out: mean pEC50 for induction of TNF-α (converted)
Procedure: as §1, §2, §3, §4, §5

Interferon-α [1] = experiment: Induction of Interferon-α using cryopreserved human PBMCs; assay type: cell-based; conditions: PBMC, 24 h incubation, normalized to 1 uM resiquimod, read-out: mean pEC50 for induction of Interferon-α (converted)
Procedure: Assay for the Induction of Interferon-α Using Cryopreserved Human Peripheral Blood Mononuclear Cells (PBMCs)
Compounds were dissolved in DMSO. Serial 2-fold dilutions with DMSO were prepared and 0.25 μl dispensed into 384-well clear Greiner polypropylene plates.
Blood samples of up to 200 ml were obtained from healthy human donors. Whole blood in 25 ml volumes was overlaid onto 15 ml Ficoll® gradients in Leucosep® tubes, and centrifuged at 1000 g for 20 min. Cells in the band at the plasma/Histopaque® interface were carefully removed and washed twice with PBS (centrifuged at 400 g for 5 min to harvest). The final pellet was resuspended in freezing medium (90% Heat-inactivated serum, 10% DMSO) to a cell concentration of 4×10^7 cells/ml. The resuspended cells were then cryopreserved (frozen) using a rate controlled freezer, and stored at −140° C. for up to 4 months.
Immediately prior to assay, vials of cryopreserved (frozen) PBMCs were thawed rapidly in a water bath at 37° C. A 1:10 dilution of the cells in trypan blue was prepared and counted. The PBMCs were then diluted in growth media [RPMI 1640 containing 10% fetal calf serum (invitrogen), Penicillin+[…] (Gibco cat. #25030-024, 1:50), L-Glutamine 2 mM, and 1000 units/ml recombinant human IFN-gamma (Preprotech catalogue #300-02)] to a density of 1×10^6 cells/ml, and 50 ul/well dispensed to 384-well clear Greiner polypropylene plates containing 0.25 μl DMSO or test compound in 0.25 μl DMSO. […] Plates were incubated for 24 h at 37° C. in 5% CO2.
A multi-isoform immunoassay was used to quantify IFN-α in PBMC supernatants. Rabbit polyclonal antibody against human IFN-α (catalogue number 31101, Stratech Scientific) was diluted 1:10000 in assay buffer (RPMI 1640 containing 10% fetal calf serum, Invitrogen) and 20 μl was added to each well of an MSD® (Meso-Scale® Discovery) single small-spot 384-well GAR (goat anti-rabbit antibody coated) plate.
The plate was incubated for 1 h at room temperature with vigorous shaking. Following three washes with PBS, 20 μl of cell supernatant were added to each well of the plate. The plate was then incubated for 1 h at room temperature with vigorous shaking. A pair of monoclonal antibodies to IFN-α (catalogue numbers 21100 and 21112, Stratech Scientific) were labelled with sulfo-TAG (MSD®), diluted 1:1000 in assay buffer and 20 μl added to each well of the plate. The plate was further incubated for 1 h at room temperature with vigorous shaking. Following three washes with PBS, 30 μl of ×2 T buffer (MSD®) was added to each well and the plate was read on an MSD® Sector 6000 plate reader.
Data were normalized to internal plate controls of 1 uM resiquimod (n=16) and DMSO (n=16). pEC50 values were derived by 4-parameter curve fit with IRLS in ActivityBase, from 11-point, two-fold serial dilution of test compounds.

Interferon-α [2] = experiment: Induction of Interferon-α following intranasal dosing in the mouse; assay type: in vivo; conditions: female BALB/c mice, serum 2 hours after dosing, ELISA
Procedure: Assay for the Induction of Interferon-α Following Intranasal Dosing in the Mouse.
Compounds were dissolved in 0.2% Tween™ 80 in saline and administered intranasally (5 μl in total between the nostrils) to female BALB/c mice (n=6) under general anaesthesia. Animals were euthanased 2 hours after dosing and a terminal blood sample was taken and serum levels of Interferon-α measured using an ELISA assay.

IL-13 = experiment: Allergen-driven cytokine assay using fresh human PBMCs from atopic volunteers (IL-13); assay type: cell-based; conditions: at 0.04 μM, compared to the allergen control; PBMCs from three allergic donors, Timothy Grass antigen
Procedure: (§6) Allergen-Driven Cytokine Assay Using Fresh Human Peripheral Blood Mononuclear Cells (PBMCs) from Atopic Volunteers
(§7) An assay based on co-culture of atopic human donor derived peripheral blood mononuclear cells (PBMCs) with allergen and test compounds was developed. After 5-6 days culture, cell supernatants were assayed for a range of cytokines.
(§8) Each compound was assayed in triplicate at all concentrations.
(§9) Defibrinated human blood from volunteers known to be allergic to Timothy grass was centrifuged at 2500 rpm for 15 minutes. The upper layer of serum was collected and heat-inactivated at 56° C. for 30 minutes (HI-autologous serum). The lower layer of cells was resuspended in 50 ml PBS (+Ca+Mg), 25 ml diluted blood were overlaid onto 20 ml Lymphoprep in 50 ml tubes then centrifuged at 2500 rpm for 20 minutes at RT. The band at the serum/Lymphoprep interface was carefully removed. The collected cells were washed with PBS and re-suspended at 4×10^6/ml in growth medium with HI-autologous serum. PBMCs were seeded at 0.4×10^6 cells/well in flat-bottomed 96 well plates in the presence of 10 ug/ml Timothy Grass antigen (Alk Abello) and test compounds at appropriate concentrations in a total volume of 200 ul.
(§10) Plates were incubated at 37° C. in 5% CO2 for up to 6 days. The cell medium from each well was harvested and stored at −20° C. prior to analysis.

IL-5 = experiment: Allergen-driven cytokine assay using fresh human PBMCs from atopic volunteers (IL-5); assay type: cell-based; conditions: at 0.04 μM, compared to the allergen control; PBMCs from three allergic donors, Timothy Grass antigen
Procedure: as §6, §7, §8, §9, §10

CCCCOc1nc(N)c2[nH]c(=O)n(CCCCCN3CCCCCCC3)c2n1 [Example 12, 6-Amino-2-(butyloxy)-9-[5-(hexahydro-1(2H)-azocinyl)pentyl]-7,9-dihydro-8H-purin-8-one]
EC50 (IFN-α): ≤ 0.01 µM
EC50 (TNF-α): > 1 µM
EC50 (Interferon-α [1]): < 3.16 µM

CCCCOc1nc(N)c2[nH]c(=O)n(CCCCCCN3CCCC3)c2n1 [Example 13, 6-Amino-2-(butyloxy)-9-[6-(1-pyrrolidinyl)hexyl]-7,9-dihydro-8H-purin-8-one]
EC50 (IFN-α): ≤ 0.001 µM
EC50 (TNF-α): ≥ 0.316 µM
EC50 (Interferon-α [1]): < 3.16 µM

CCCCOc1nc(N)c2[nH]c(=O)n(CCCCCCN3CCCCC3)c2n1 [Example 14, 6-Amino-2-(butyloxy)-9-[6-(1-piperidinyl)hexyl]-7,9-dihydro-8H-purin-8-one]
EC50 (IFN-α): ≤ 0.01 µM
EC50 (TNF-α): > 1 µM
EC50 (Interferon-α [1]): < 3.16 µM

CCCCOc1nc(N)c2[nH]c(=O)n(CCCCCCN3CCCCCC3)c2n1 [Example 15, 6-Amino-2-(butyloxy)-9-[6-(hexahydro-1H-azepin-1-yl)hexyl]-7,9-dihydro-8H-purin-8-one]
EC50 (IFN-α): ≤ 0.001 µM
EC50 (TNF-α): ≥ 0.316 µM
EC50 (Interferon-α [1]): < 3.16 µM

CCCCNc1nc(N)c2[nH]c(=O)n(CCCCN3CCCCCC3)c2n1 [Example 18, 6-Amino-2-(butylamino)-9-[4-(hexahydro-1H-azepin-1-yl)butyl]-7,9-dihydro-8H-purin-8-one]
EC50 (IFN-α): ≤ 0.01 µM
EC50 (TNF-α): > 1 µM
EC50 (Interferon-α [1]): < 3.16 µM

CCC[C@H](C)Oc1nc(N)c2[nH]c(=O)n(CCCCN3CCCCC3)c2n1 [Example 20, 6-Amino-2-{[(1S)-1-methylbutyl]oxy}-9-[4-(1-piperidinyl)butyl]-7,9-dihydro-8H-purin-8-one]
EC50 (IFN-α): ≤ 0.001 µM
EC50 (TNF-α): ≥ 0.316 µM
EC50 (Interferon-α [1]): < 3.16 µM

CCC[C@H](C)Oc1nc(N)c2[nH]c(=O)n(CCCCN3CCCCCC3)c2n1 [Example 21, 6-Amino-9-[4-(hexahydro-1H-azepin-1-yl)butyl]-2-{[(1S)-1-methylbutyl]oxy}-7,9-dihydro-8H-purin-8-one]
EC50 (IFN-α): ≤ 0.001 µM
EC50 (TNF-α): ≥ 0.316 µM
EC50 (Interferon-α [1]): < 3.16 µM
mean serum levels of Interferon-α (Interferon-α [2]): 20326 pg/mL

CCC[C@H](C)Oc1nc(N)c2[nH]c(=O)n(CCCCCN3CCCCC3)c2n1 [Example 22, 6-Amino-2-{[(1S)-1-methylbutyl]oxy}-9-[5-(1-piperidinyl)pentyl]-7,9-dihydro-8H-purin-8-one]
reduction of production of Th2 cytokine IL-13 (IL-13): ≥ 50%
EC50 (IFN-α): ≤ 0.001 µM
EC50 (TNF-α): ≥ 0.316 µM
reduction of production of Th2 cytokine IL-5 (IL-5): ≥ 50%
EC50 (Interferon-α [1]): < 3.16 µM
mean serum levels of Interferon-α (Interferon-α [2]): 21029 pg/mL

CCC[C@H](C)Oc1nc(N)c2[nH]c(=O)n(CCCCCN3CCCCCC3)c2n1 [Example 23, 6-Amino-9-[5-(hexahydro-1H-azepin-1-yl)pentyl]-2-{[(1S)-1-methylbutyl]oxy}-7,9-dihydro-8H-purin-8-one]
EC50 (IFN-α): ≤ 0.001 µM
EC50 (TNF-α): ≥ 0.316 µM
EC50 (Interferon-α [1]): < 3.16 µM
